# In patent US6605115B1, “Method and composition for inhibiting cardiovascular cell proliferation” (Board of Trustees of the Leland Stanford Junior University, priority 1999, dated 2003):
# B1: IFN-γ: Recombinant rat recombinant interferon-γ (protein, UniProt P01581 23-156, looked up)
# Interferon gamma: QGTLIESLESLKNYFNSSSMDAMEGKSLLLDIWRNWQKDGNTKILESQIISFYLRLFEVLKDNQAISNNISVIESHLITNFFSNSKAKKDAFMSIAKFEVNNPQIQHKAVNELIRVIHQLSPESSLRKRKRSRC
# Experiments:
# [1] = tested on: rabbit carotid artery segment; assay: Ex vivo translocation study, carotid artery segments; set-up: species or system New Zealand white rabbits; settings: carotid artery, 10.0 μM, 30 minutes
# Protocol: (§1) After incubation with biotin labeled oligomer, vascular segments were washed, then frozen in OCT compound (Miles Scientific). Frozen sections, 5 μm thick, were fixed with acetone for 10 minutes. Internalized biotin was detected using the staining procedure described in Example 2. Methyl green was used for nuclear counter staining.
# (§2) To quantify the efficiency of nuclear translocation, the numbers of both DAB positive nuclei and total nuclei were counted in the intima and media separately at ×400 magnification with a video image analysis system (Automatrix). The frequency of nuclear translocation was expressed as the percent staining of nuclei, defined as the ratio of the number of DAB positive nuclei to that of all nuclei, in the intima and media. Each protocol was repeated 4 times.
# Both carotid artery and jugular vein segments of male New Zealand white rabbits were used. To test the dose dependence of R7 translocation, vascular segments were incubated for 30 minutes with either bL-R7 or bD-R7 solution (0.1, 1.0, and 10.0 μM) in serum-free Dulbecco's minimal essential medium (DMEM) (Gibco BRL). To test the incubation time dependence, vascular segments were incubated with 10.0 μM of biotin labeled R7 solution for 10 seconds, 60 seconds, 5 minutes, 10 minutes, and 30 minutes. Furthermore, to determine the ability of R7 to penetrate through the vessel wall, vascular segments were ligated one end, R7 containing medium was instilled, and the other end ligated so as to expose only the luminal surface to R7. The luminal surface of the vascular segment was exposed to bL-R7 or bD-R7 (10.0 μM) for 30 minutes. To test the temperature dependence of translocation, vascular segments were incubated with 10.0 μM of biotin labeled R7 solutions at 37° C. or 4° C. To determine the disappearance time course of translocated R7, vascular segments were incubated with biotin labeled R7 solutions (10.0 μM) at 37° C. for 30 minutes, and then reincubated in DMEM with 10% FBS up to 5 days. Vascular segments were harvested at 1, 2 and 5 days after initial incubation.
# [2] = tested on: human umbilical vein endothelial cells (ECV304); assay: In vitro translocation of biotin-labeled peptides into endothelial cells; type: cell-based; settings: endothelial cells, 0.1, 1.0, and 10.0 μM, 30 minutes
# Protocol: Spontaneously transformed human umbilical vein endothelial cells (ECV304, ATCC) were cultured in medium M199 (Irvine Scientific) containing 10% fetal bovine serum (FBS), 100 IU/ml penicillin and 100 μg/ml of streptomycin (Gibco BRL). Confluent cells were washed and placed in serum-free medium. After 2 hours, the cells were incubated in presence of biotin labeled peptides, as bL-R7, or bD-R7, or bL-K7 (0.1, 1.0, and 10.0 μM). After 30 minutes of incubation, cells were washed 3 times with phosphate-buffered saline (PBS), fixed in ethanol/acetone; washed in PBS; incubated for 30 minutes with peroxidase suppressor (ImmunoPure, Pierce) to block endogenous peroxidase activity; and then incubated with 5 μg/ml of horse-radish peroxidase (HRP) conjugated strepavidin (Pierce) for 30 minutes. Substrate of HRP, diaminobenzidine (DAB, Sigma), was added to the cells. The reaction was terminated by washing in distilled water after a 60-second incubation. This experiment was repeated 3 times.
# [3] = tested on: rat vascular smooth muscle cells (VSMC); assay: Translocation of biotin-labeled peptides into cultured VSMC (HRP-streptavidin/DAB staining); type: cell-based; settings: 10 μM, 30 minutes, 37° C.
# Protocol: In the studies described below, transmembrane transport and cellular uptake of oligomers was assessed by incubating cells or tissue with biotin-oligomer conjugates, followed by treatment with horseradish peroxidase (HRP)-conjugated streptavidin and subsequent incubation with DAB (3,3′-diaminobenzidine), a substrate of the enzyme which produces a highly colored product.
# Cultured VSMC (vascular smooth muscle cells) were treated, as described in Example 2, with biotinylated oligomers of arginine or lysine. After incubation, the cells were treated with HRP-streptavidin conjugate, then with DAB. Staining by the oxidation product was observed using light microscopy.
# Rat VSMCs were grown on glass microscope slide chambers (Nunc Inc., Naperville, Ill.). Subconfluent cells were washed and placed in serum-free medium. After 2 hours, cells were treated with bR7, or bK7 (0.1 μM, 1.0 μM, 10 μM), at 37° C. for 30 minutes. To assess the role of endocytosis in cellular uptake of the peptides, experiments were performed at 4° C., and also in the presence of sodium azide (1.0%) for 30 minutes prior to exposure to the peptides. To assess the involvement of the basic amino acid transport system y+ in the translocation of peptides into the cell, experiments were performed in the presence of excess extracellular L-arginine (10 mM).
# After 30 minutes of incubation with the peptides, cells were washed 3 times with phosphate-buffered saline (PBS), fixed for 5 minutes at −20° C. in ethanol/acetone, washed 3 times in PBS, incubated for 30 minutes with a peroxidase suppressor (ImmunoPure, Pierce, Rockford, Ill.) to block endogenous peroxidase activity and nonspecific binding, washed, and then incubated with 5 μg/ml of horseradish peroxidase (HRP) conjugated strepavidin (Pierce, Rockford, Ill.) for 30 minutes. Cells were washed 3 times with PBS, and a substrate of HRP, DAB (Sigma, St. Louis, […].), was added to the cells. The reaction was terminated by washing in distilled water after a 60-second incubation with DAB. Cell preparations were observed by conventional light microscopy (see FIG. 1). This experimental protocol was repeated 3 times.
# jugular vein segments = assay: Ex vivo translocation study, jugular vein segments; set-up: species or system New Zealand white rabbits; settings: 10 μM, 30 minutes
# Protocol: as §1, §2
# Both carotid artery and jugular vein segments of male New Zealand white rabbits were used. To test the dose dependence of R7 translocation, vascular segments were incubated for 30 minutes with either bL-R7 or bD-R7 solution (0.1, 1.0, and 10.0 μM) in serum-free Dulbecco's minimal essential medium (DMEM) (Gibco BRL). To test the incubation time dependence, vascular segments were incubated with 10.0 μM of biotin labeled R7 solution for 10 seconds, 60 seconds, 5 minutes, 10 minutes, and 30 minutes. […]
# vein grafts = assay: Vein graft model: vessel morphometry 28 days after surgery; type: in vivo, New Zealand white rabbits
# Protocol: Male New Zealand white rabbits (3.0-3.5 kg) fed standard diets were anesthetized with a mixture of ketamine (40 mg/kg) and xylazine (5 mg/kg) intramuscularly. The left external jugular vein was exposed through a longitudinal neck incision. The jugular vein was excised, gently flushed and immersed in PBS (control) or PBS containing either L-R7 (10.0 μM) or D-r7 (10.0 μM) for 30 minutes.
# The right common carotid artery was exposed and clamped at the both proximal and distal ends. The treated vein segment was washed with PBS and then anastomosed in a reverse end-to-side fashion into the carotid artery, using continuous 8-0 polypropylene sutures. The common carotid artery was ligated and dissected between the two anastomoses, and the wound was closed with 3-0 nylon suture.
# Vein graft segments were harvested on the 28th surgical day. Graft segments were fixed in 10% buffered formalin with gentle intraluminal pressure to maintain the physiological graft configuration. The middle portion of the paraffin samples were sectioned (5 μm) and stained with hematoxylin/eosin for light microscopic examination (FIGS. 8A-C). Three sections of each graft, taken at 0.5 mm intervals, were analyzed by planimetry by a observer blinded to the treatment group. The cross-sectional areas of the lumen, intima and media was digitized with the use of the Image Analyst program (Automatrix). The ratio of intima to media (I/M) area was calculated.
# [4] = tested on: coronary vessels of transplanted PVG rat donor hearts; assay: Heart transplant study (graft coronary artery disease, GCAD); type: in vivo; settings: for % affected vessels / % luminal narrowing / I/M ratio: intracoronary 50 uM, 30 minutes
# Protocol: In this study, PVG rat donor hearts (n=48) were transplanted heterotopically into the abdomen of ACI recipients. Donor hearts received either intracoronary PBS or intracoronary 50 uM (L)-arginine polymer (L-R5 or L-R9) for 30 minutes. (D-arginine polymers were not included in this study.) Each of these groups was further divided into 60 and 90 day study animals (n=6 each). Percent luminal narrowing, intima to media ratio (I/M), and percent affected vessels were determined as described in Example 11, below. Transfection efficiency was determined by infusing biotinylated R5 and R9, as in the preceding studies, and calculating the percentage of biotin positive nuclei divided by total number of nuclei.
# PVG rat donor hearts (n=48) were transplanted heterotopically into the abdomen of ACI recipients. Donor hearts received either intracoronary PBS or intracoronary 50 uM (L)-arginine polymer (L-R5 or L-R9) for 30 minutes. Each group was further divided into 60 and 90 day study animals (n=6 each). Tissue cross sections (5μ) were stained with EVG (Elastica-van Gieson) preparation, and vessels were scored using computerized morphometry for analysis of % luminal narrowing, intima to media ratio (I/M), and % affected vessels. Transfection efficiency was determined by infusing biotinylated R5 and R9, as in preceding examples, and calculating the percentage of biotin positive nuclei divided by total number of nuclei. Results are described in Section IV C, above.
# cell membrane = settings: previously demonstrated; cited from earlier work
# cytokine-stimulated VSMC = assay: Effect of arginine oligomers on NO production in cytokine-stimulated VSMC (NO2, Griess); type: cell-based, rat; settings: pretreatment 30 minutes, then IFN-γ and LPS, 100 μM extracellular L-arginine
# Protocol: (§3) Rat VSMCs were prepared from the media layer of thoracic aorta of Sprague-Dawley rats by the explant method. The cells were cultured in Dulbecco's modified Eagle's medium (DMEM, Gibco BRL, Gaithersburg, Md.) containing 10% fetal calf serum, 100 U/ml penicillin and 100 μg/ml streptomycin at 37° C. under a humidified atmosphere containing 5% CO2. After subconfluent growth, cells were cultured with MEM Select Amine Kit (Gibco BRL, Gaithersburg, Md.) to be treated by specific concentrations of extracellular free L-arginine. Experiments were performed using cultured cells at passage levels of 5-10.
# (§4) Extracellular NO production was measured as its stable oxidative metabolite, nitrite (NO2). At the end of each incubation, samples of the medium (80 μl) were collected, and NO2 measurement was performed using the Griess reaction facilitated by a commercial calorimetric assay (Cayman Chemical, Ann Arbor, Mich.). Values of NO2 production were corrected with relative cell count assessed by a cell proliferation kit II (XTT) (Boeheringer Mannheim, Germany).
# Subconfluent cells were pre-incubated with medium containing 100 μM arginine for 24 hours. The cells were then transiently pretreated with each arginine polymer for 30 minutes. After translocation, the cells were incubated with a mixture of IFN-γ (100 U/ml) and LPS (100 μg/ml) in medium containing 100 μM L-arginine for another 24 hours. In some experiments, L-NMMA (1 mM), a nitric oxide synthase inhibitor, was added to the medium.
# rat VSMC = assay: Stimulation of cells with interferon-γ and LPS: NO2 accumulation and dependence on extracellular L-arginine; type: cell-based; settings: IFN-γ dose
# Protocol: as §3, §4
# Cells were plated at a density of 5×10^3 per well into 96-well plates. […] After 24 hours of incubation, the cells were then treated with a mixture of IFN-γ (100 U/ml) and LPS (100 μg/ml) in the medium containing the same dose of L-arginine for another 24 hours, and nitrite (NO2) accumulation in the culture medium was quantified.
molecule,measurement,setting,value
"biotin-labeled heptalysine [bK7, reference compound]",biotin signal in vascular cells,[1],no stained cells were apparent
same,internalized biotin signals,[2],No internalized biotin signals were detected
same,internalized biotin signal (staining),[3],no internalized biotin signal was observed
same,biotin staining pattern,jugular vein segments,no stained cells were apparent
penta-L-arginine [R5],myointima formation,vein grafts,not effective in inhibiting myointima formation
same,GCAD compared to PBS controls,[4]; 60 and 90 days,essentially no difference in GCAD
same,% affected vessels,[4]; 60 days,18.9 ± 7%
same,% luminal narrowing,[4]; 60 days,12.6 ± 6.7%
same,I/M ratio,[4]; 60 days,.13 ± .07
same,% affected vessels,[4]; 90 days,18.5 ± 11.9%
same,% luminal narrowing,[4]; 90 days,14.2 ± 12%
same,I/M ratio,[4]; 90 days,.16 ± .14
same,transfection of coronary vessels,[4]; biotinylated oligomer infused,minimal transfection of coronary vessels
same,translocation across the cell membrane,cell membrane,not to translocate across the cell membrane
same,NO production,cytokine-stimulated VSMC,no significant enhancement of NO production
B1,effect on NO biosynthesis,rat VSMC,dose-dependent
